Test results from patent US7998989B2, “2-Imino-1,3-thiazoline-based compounds and T-type calcium channel inhibitors containing the same” (Korea Institute of Science and Technology, priority 2007, dated 2011).

What was measured:
[1] = molecular target: T1, α1G T-type calcium channel (Homo sapiens, UniProt O43497); test: Assay for % inhibiting activity against T-type calcium channel using FDSS6000 (fluo-3 calcium imaging, KCl activation); assay type: cell-based; details: 10 μM; HEK293 cells stably expressing α1G T-type calcium channel and Kir2.1; compounds of the examples
T1 construct: host or cells: HEK293
In short: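 HEK293 cells stably expressing α1G and Kir2.1 loaded with 5 μM fluo-3/AM, then in HEPES buffer (pH 7.4) with 10 mM CaCl2. Compound applied 75 s before 75 mM KCl; intracellular Ca2+ read as […] area, % inhibition relative to untreated control.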

[2] = molecular target: T1, α1G T-type calcium channel; test: Electrophysiological whole cell patch clamp measurement of T-type calcium channel current in HEK293 cells; assay type: cell-based; details: HEK293 cells expressing α1G; for HEK293cell (% Inhibition) 10 μM: inhibition of peak current; for IC50: read-out: IC50 (a1G)
Protocol: In the present invention, in order to examine an efficient inhibitor against the T-type calcium channel, a primary assay for T-type calcium channel inhibiting activity was conducted by a high-efficient assay using FDSS6000, wherein mammal HEK293 cell lines (originated from human kidney carcinoma cells) that specifically express α1G of the T-type calcium channel was used for primary assay. Through the primary assay, compounds that show meaningful inhibition effects were selected. The selected compounds were used in a second assay for T-type calcium channel inhibiting activity using an electrophysiological whole cell patch clamp method, wherein mammal HEK293 cell lines (originated from human kidney carcinoma cells) that specifically express α1G of the T-type calcium channel was used for the second assay. Mibefradil, which had been developed as a T-type calcium channel inhibitor, was used as a reference.
10% Fetal bovine serum (FBS) and 1% penicillin/streptomycin (v/v) were added to Dulbecco's modified Eagle's medium (DMEM), to be used as a media solution. The cells were cultured in an incubator under a wet condition of 95% air/5% CO2 and a temperature of 36.5° C. The media solution was refreshed every 3 or 4 days, and the cells were sub-cultured every week. Only the cells that expressed α1G T-type calcium channel were cultured using a G-418 (0.5 mg/ml) solution. The recording of the cells used in the T-type calcium channel activity analysis was conducted at 2-7 days after the cells were culturing on a cover slip coated with poly-L-lysine (0.5 mg/ml) when conducting every sub-culture. For analysis at a single cell level, the T-type calcium channel current was measured by an electrophysiological whole cell patch clamp method using EPC-9 amplifier (HEKA, German).
As solutions for analyzing T-type calcium channel activity, a solution including NaCl 140 mM, CaCl2 2 mM, and HEPES10 mM (pH 7.4, Sigma; 4-(2-hydroxyethyl)piperazine-1-ethanesulfonic acid) was used as an extracellular solution, and a solution including KCl 130 mM, HEPES 10 mM (Sigma), EGTA 11 mM (ethylene glycol-bis(2-aminoethylether)-N,N,N′,N′-tetraacetic acid, Sigma), and MgATP 5 mM (pH 7.4, Sigma) was used as an intracellular solution. The protocol for T-type calcium channel activity that is activated at low voltage is as follows. A micro-glass electrode with resistance of 3-4 MΩ wherein the above-prepared intracellular solution was filled was pricked into a single cell, to make a whole-cell recording mode. Thereafter, the cell membrane potential was fixed to −100 mV, and then the inward current due to the T-type calcium channel activity when hypopolarizing to −30 mV (50 ms duration) was measured every 10 seconds.
Each compound to be tested was dissolved in 100% dimethylsulfoxide (DMSO) to make a 10 mM stock solution. The effect of the compound on the T-type calcium channel current compound was initially examined in the stock solution with the 1000-times diluted concentration of 10 μM (containing 0.1% DMSO) and then examined in the solution with the concentration for IC50 measurement (mostly 0.1 to 100 μM), to obtain an IC50 value. More specifically, the cells were treated in each compound together with the extracellular solution for 30 to 60 seconds, and the inhibition level of peak current induced by the compound was calculated as a percentage, to obtain the % inhibition value as shown in Table 4.

T1 sequence (O43497 whole entry): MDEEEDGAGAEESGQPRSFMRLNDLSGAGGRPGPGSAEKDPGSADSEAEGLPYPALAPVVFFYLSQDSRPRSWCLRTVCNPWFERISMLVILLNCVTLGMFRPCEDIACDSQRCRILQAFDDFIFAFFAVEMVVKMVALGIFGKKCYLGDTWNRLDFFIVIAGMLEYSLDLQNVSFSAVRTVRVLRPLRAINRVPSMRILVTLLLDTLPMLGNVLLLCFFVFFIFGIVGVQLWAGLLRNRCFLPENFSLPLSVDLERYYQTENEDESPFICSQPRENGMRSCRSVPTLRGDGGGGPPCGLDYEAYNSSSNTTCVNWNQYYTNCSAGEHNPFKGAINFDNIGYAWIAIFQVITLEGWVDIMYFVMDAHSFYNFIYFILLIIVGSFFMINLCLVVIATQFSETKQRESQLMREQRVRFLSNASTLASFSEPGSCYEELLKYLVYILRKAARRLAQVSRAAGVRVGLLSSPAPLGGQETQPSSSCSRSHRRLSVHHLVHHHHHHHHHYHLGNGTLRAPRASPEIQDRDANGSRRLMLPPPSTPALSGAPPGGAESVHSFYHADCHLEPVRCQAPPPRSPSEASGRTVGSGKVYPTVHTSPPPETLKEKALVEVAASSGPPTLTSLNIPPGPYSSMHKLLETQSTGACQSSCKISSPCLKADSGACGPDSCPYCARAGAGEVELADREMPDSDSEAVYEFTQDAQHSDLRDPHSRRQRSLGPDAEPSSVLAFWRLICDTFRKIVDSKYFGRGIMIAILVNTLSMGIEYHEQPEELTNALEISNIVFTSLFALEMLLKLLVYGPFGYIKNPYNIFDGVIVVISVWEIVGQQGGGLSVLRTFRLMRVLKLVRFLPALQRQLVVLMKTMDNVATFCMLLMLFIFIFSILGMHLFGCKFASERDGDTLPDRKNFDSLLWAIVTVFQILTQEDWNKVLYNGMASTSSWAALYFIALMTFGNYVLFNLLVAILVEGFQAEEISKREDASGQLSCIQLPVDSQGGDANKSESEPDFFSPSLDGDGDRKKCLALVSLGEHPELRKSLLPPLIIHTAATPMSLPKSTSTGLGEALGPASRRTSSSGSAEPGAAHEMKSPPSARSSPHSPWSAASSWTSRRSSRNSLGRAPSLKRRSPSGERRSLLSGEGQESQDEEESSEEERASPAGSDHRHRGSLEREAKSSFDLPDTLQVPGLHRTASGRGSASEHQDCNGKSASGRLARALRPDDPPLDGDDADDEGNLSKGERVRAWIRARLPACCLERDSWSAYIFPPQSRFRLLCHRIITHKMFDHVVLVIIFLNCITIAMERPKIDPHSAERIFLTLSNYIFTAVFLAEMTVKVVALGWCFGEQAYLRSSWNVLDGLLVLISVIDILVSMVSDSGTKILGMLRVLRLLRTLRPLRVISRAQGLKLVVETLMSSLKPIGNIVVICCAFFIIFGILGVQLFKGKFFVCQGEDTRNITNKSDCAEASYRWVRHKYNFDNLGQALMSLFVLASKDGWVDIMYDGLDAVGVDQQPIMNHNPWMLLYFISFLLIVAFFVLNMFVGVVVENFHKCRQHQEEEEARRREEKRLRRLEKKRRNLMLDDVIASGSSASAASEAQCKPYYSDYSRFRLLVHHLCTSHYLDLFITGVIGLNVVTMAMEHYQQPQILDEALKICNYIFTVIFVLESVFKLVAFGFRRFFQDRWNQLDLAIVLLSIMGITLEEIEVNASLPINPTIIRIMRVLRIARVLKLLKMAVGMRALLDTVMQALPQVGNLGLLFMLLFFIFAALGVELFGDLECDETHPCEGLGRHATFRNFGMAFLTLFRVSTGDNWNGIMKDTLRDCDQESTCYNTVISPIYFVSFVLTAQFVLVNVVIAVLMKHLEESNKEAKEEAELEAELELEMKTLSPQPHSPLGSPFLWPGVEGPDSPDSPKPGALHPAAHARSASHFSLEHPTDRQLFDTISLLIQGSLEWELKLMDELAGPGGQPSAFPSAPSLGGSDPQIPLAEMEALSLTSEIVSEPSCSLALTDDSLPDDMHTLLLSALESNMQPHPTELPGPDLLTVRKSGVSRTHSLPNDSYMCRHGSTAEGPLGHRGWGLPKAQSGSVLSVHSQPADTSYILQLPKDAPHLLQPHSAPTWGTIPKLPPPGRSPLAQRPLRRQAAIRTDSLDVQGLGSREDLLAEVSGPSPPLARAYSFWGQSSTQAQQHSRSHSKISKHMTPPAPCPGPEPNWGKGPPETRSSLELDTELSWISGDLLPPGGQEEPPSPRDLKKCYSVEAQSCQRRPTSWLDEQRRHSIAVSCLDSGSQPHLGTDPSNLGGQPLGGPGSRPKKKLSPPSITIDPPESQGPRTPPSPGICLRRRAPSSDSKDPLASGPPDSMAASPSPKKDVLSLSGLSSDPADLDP

Substance | FDSS (% inhibition)/10uM [1] [%] | HEK293cell (% Inhibition) 10 μM [2] [%] | IC50 [2] [nM]
[2-(1-adamantylimino)-3-n-propyl-1,3-thiazolidine-4-yl]-N-(4-chloro-2-fluorophenyl)-acetamide hydrochloride [KHG24816] | 80.83 | 95.6 ± 0.8 | 510 ± 10
[2-(1-adamantylimino)-3-n-propyl-1,3-thiazolidine-4-yl]-N-(4-ethylphenyl)-acetamide hydrochloride [KHG24814] | 76.32 | 96.9 ± 1.8 | 300 ± 10
[2-(1-adamantylimino)-3-n-propyl-1,3-thiazolidine-4-yl]-N-(4-fluorophenyl)-acetamide hydrochloride [KHG24811] | 71.82 | 94.8 ± 0.7 | 600 ± 40
